“Also recorded” adds a separate entry of the source.
Legend:
WS2 [1] = target: T1, WS2 (Marinobacter nauticus, UniProt A3RE51); test: Kinetic WS assay, spectrophotometric (CoA release, DTNB); assay type: biochemical, Marinobacter hydrocarbonoclasticus DSM 8798; details: for Acyl-CoA specificity of WS2: hexadecanol as acyl acceptor
Description: Assay reactions were preincubated at 37° C. for 5 min before the reactions were started by the addition of enzyme. Heat-denatured enzyme (99° C. for 15 min) was used as a negative control.
Acyl-CoA and fatty/isoprenoid alcohol specificity of WS2 was determined in the same manner as described for the kinetic WS assay with assumed saturating conditions containing both the fatty/isoprenoid alcohol and acyl-CoA substrates at a concentration of 1 mM. Acyl-CoA specificity was measured with hexadecanol as acyl acceptor, whereas palmitoyl-CoA was used as acyl donor to determine alcohol specificity.
A spectrophotometric assay was developed to determine the kinetic properties of WS1 and WS2. […] The specific activities of WS1, WS2, and Acinetobacter WS/DGAT were measured with palmitoyl-CoA and hexadecanol, palmitoyl-CoA and phytol, and phytanoyl-CoA and phytol. Phytanoyl-CoA for these assays was enzymatically synthesized from phytanic acid and CoA using the above-characterized isoprenoid/acyl-CoA synthetase Acs2.

Acinetobacter WS/DGAT = target: T2, Acinetobacter WS/DGAT (Acinetobacter baylyi, UniProt Q8GGG1); test: as above; assay type: biochemical
T2 construct: His6 (N); made in house
T2 sequence (Q8GGG1 1-458): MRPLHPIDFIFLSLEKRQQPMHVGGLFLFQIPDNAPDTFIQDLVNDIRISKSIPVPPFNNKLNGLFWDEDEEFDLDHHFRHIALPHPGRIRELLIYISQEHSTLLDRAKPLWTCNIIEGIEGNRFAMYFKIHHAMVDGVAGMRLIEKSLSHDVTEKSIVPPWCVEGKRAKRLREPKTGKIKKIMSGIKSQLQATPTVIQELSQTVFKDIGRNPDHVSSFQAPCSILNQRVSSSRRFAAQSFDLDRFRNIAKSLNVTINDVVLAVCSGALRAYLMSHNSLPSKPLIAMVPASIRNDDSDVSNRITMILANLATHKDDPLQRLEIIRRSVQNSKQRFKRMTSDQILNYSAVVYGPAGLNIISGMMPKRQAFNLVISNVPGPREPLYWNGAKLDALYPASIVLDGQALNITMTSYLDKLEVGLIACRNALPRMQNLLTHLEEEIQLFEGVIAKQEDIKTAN
Description: (§1) WS activity was determined by monitoring CoA release using Ellman's reagent [5,5′-dithio-bis(2-nitrobenzoic acid); DTNB] at 412 nm (ε=13,600 M^−1 cm^−1) (Ellman, 1959. Arch. Biochem. Biophys. 82:70-77). Kinetic in vitro assays were performed in triplicate in 125 mM sodium phosphate buffer (pH 7.4) containing 0.1% Tergitol NP-11 detergent, 10 mM MgCl2, 1 mM DNTB, 250 μM palmitoyl-CoA, 1 to 250 μM hexadecanol, and 0.5 μg of WS enzyme. Assay reactions were preincubated at 37° C. for 5 min before the reactions were started by the addition of enzyme. Heat-denatured enzyme (99° C. for 15 min) was used as a negative control.
(§2) Acyl-CoA and fatty/isoprenoid alcohol specificity of WS2 was determined in the same manner as described for the kinetic WS assay with assumed saturating conditions containing both the fatty/isoprenoid alcohol and acyl-CoA substrates at a concentration of 1 mM. Acyl-CoA specificity was measured with hexadecanol as acyl acceptor, whereas palmitoyl-CoA was used as acyl donor to determine alcohol specificity. Isoprenoid WS activity of WS2 was determined with 250 μM HPLC purified phytanoyl-CoA and 250 μM phytol as substrates.
(§3) A spectrophotometric assay was developed to determine the kinetic properties of WS1 and WS2. The concentration of sulfhydryl groups of CoA released during the condensation reaction between fatty/isoprenoid CoA activated acids and alcohols was determined by using Ellman's reagent (DTNB) (Ellman, 1959. Arch. Biochem. Biophys. 82:70-77). The specific activities of WS1, WS2, and Acinetobacter WS/DGAT were measured with palmitoyl-CoA and hexadecanol, palmitoyl-CoA and phytol, and phytanoyl-CoA and phytol. Phytanoyl-CoA for these assays was enzymatically synthesized from phytanic acid and CoA using the above-characterized isoprenoid/acyl-CoA synthetase Acs2.

WS1 [2] = test: as above; assay type: biochemical, Marinobacter hydrocarbonoclasticus DSM 8798
Description: as §1, §2, §3

WS2 [3] = target: T1, WS2; test: WS2 kinetics on ethanol and oleoyl-CoA (DTNB); assay type: biochemical, Marinobacter hydrocarbonoclasticus
Description: (§4) […] Assay reactions were pre-incubated at 37° C. for 5 minutes before the reactions were started by the addition of enzyme.

WS1 [4] = test: Coupled enzyme assay, WS substrate profile (TLC); assay type: biochemical, Marinobacter hydrocarbonoclasticus DSM 8798; details: coupled reaction; palmitic acid with hexadecanol, phytanic acid with phytol, phytanoyl-CoA with the alcohols named in the value
Description: (§5) Stock solutions of various substrates were prepared in 50 mM Tris-HCl buffer (pH 8) containing 1% gum arabic, 12.5 μg bovine serum albumin ml^−1, 0.1% taurocholate, and either 100 mM fatty acid, isoprenoid acid, fatty alcohol, or isoprenoid alcohol. Stock solutions were sonicated to disperse the substrates. Substrate profiles of the three WS were tested using coupled enzyme in vitro reactions in which the CoA synthetases Acs1 and Acs2 are added to synthesize the CoA-activated fatty acid phytanic acid substrates from corresponding acid precursors for the WS reactions. Assays were carried out in 500-μl reactions containing in 50 mM Tris-HCl buffer (pH 8.0), 12.5 μl of each acid, and alcohol substrate stock solution (final concentrations of each substrate of 250 μM), 10 mM MgCl2, 10 mM CoASH, 10 mM ATP, 5 mM TCEP, 0.1 U of inorganic pyrophosphatase, 0.25 μg of Acs1 and Acs2 CoA synthetase, and 0.5 μg of WS to be tested. Assays were incubated at 37° C. overnight before thin-layer chromatography (TLC) analysis of the reaction products.
(§6) In vitro WS assay samples were extracted with 500 μl of chloroformmethanol (1:1 [vol/vol]), and extracts were analyzed by TLC with Whatman normal phase silica gel 60 plates and developed using hexane-diethyl ether-acetic acid (90:10:1 [vol/vol/vol]). TLC plates were stained with either iodine vapor or anisaldehyde solution as described earlier (Jork et al., 1990. Thin-layer chromatography reagents and detection methods, vol. 1a. Physical and chemical detection methods: fundamentals, reagents. VHC, Weinheim, Germany). Palmitoyl palmitate and triolein were used as WE and TAG reference compounds, respectively.

WS2 [5] = target: T1, WS2; test: Coupled enzyme assay, WS substrate profile (TLC); assay type: biochemical, Marinobacter hydrocarbonoclasticus DSM 8798; details: coupled reaction; palmitic acid with hexadecanol, phytanic acid with phytol, phytanoyl-CoA with the alcohols named in the value
Description: as §5, §6

[6] = substrate: CCCCCCCC/C=C\CCCCCCCC(=O)SCCNC(=O)CCNC(=O)[C@H](O)C(C)(C)COP(=O)(O)OP(=O)(O)OC[C@H]1O[C@@H](n2cnc3c(N)ncnc32)[C@H](O)[C@@H]1OP(=O)(O)O; test: WS2 kinetics on ethanol and oleoyl-CoA (DTNB); assay type: biochemical, Marinobacter hydrocarbonoclasticus; details: other: steady state; varied substrate 10 μM-250 μM, other substrate (oleoyl-CoA or ethanol) 500 μM; pH 7.2; 37.0 °C
Description: as §4

[7] = substrate: CCCCCCCCCCCCCCCCO; test: Kinetic WS assay, spectrophotometric (CoA release, DTNB); assay type: biochemical, Marinobacter hydrocarbonoclasticus DSM 8798; details: other: saturating palmitoyl-CoA (250 μM), various concentrations of hexadecanol; pH 7.4
[8] = co-substrate hexadecanol (C16), listed as palmitoyl-CoA
[9] = steady state, varied substrate 10 μM-250 μM, other substrate (oleoyl-CoA or ethanol) 500 μM

Molecule: CCCCCCCCCCCCCCCC(=O)SCCNC(=O)CCNC(=O)[C@H](O)C(C)(C)COP(=O)(O)OP(=O)(O)OC[C@H]1O[C@@H](n2cnc3c(N)ncnc32)[C@H](O)[C@@H]1OP(=O)(O)O [Palmitoyl-CoA, palmitoyl-CoA (C16:0)]
- Mean sp act ± SD of Marinobacter WS2 (WS2 [1]; co-substrate hexadecanol (C16)): 61.323 ± 1.79 mmol/min/mg
- Mean sp act ± SD of Marinobacter WS2 (WS2 [1]; [8]): 61 mmol/min/mg
- Mean sp act ± SD of Marinobacter WS2 (WS2 [1]; co-substrate phytol): 28.872 ± 2.13 mmol/min/mg
- Acyl-CoA specificity of WS2 (WS2 [1]; both substrates 1 mM): clear preference
- WS2 more active than WS1 or Acinetobacter WS/DGAT in creating the hybrid WE (WS2 [1]; palmitoyl-CoA and phytol as substrates): 20 fold
- Mean sp act ± SD of Acinetobacter WS/DGAT (Acinetobacter WS/DGAT; co-substrate hexadecanol (C16)): 0.389 ± 0.039 mmol/min/mg
- Mean sp act ± SD of Acinetobacter WS/DGAT (Acinetobacter WS/DGAT; [8]): 0.38 mmol/min/mg
- Mean sp act ± SD of Acinetobacter WS/DGAT (Acinetobacter WS/DGAT; co-substrate phytol): 0.138 ± 0.003 mmol/min/mg
- Mean sp act ± SD of Marinobacter WS1 (WS1 [2]; co-substrate hexadecanol (C16)): 1.338 ± 0.5 mmol/min/mg
- Mean sp act ± SD of Marinobacter WS1 (WS1 [2]; [8]): 1.3 mmol/min/mg
- Mean sp act ± SD of Marinobacter WS1 (WS1 [2]; co-substrate phytol): 0.152 ± 0.011 mmol/min/mg

Molecule: CC/C=C\C/C=C\C/C=C\CCCCCCCC(=O)SCCNC(=O)CCNC(=O)[C@H](O)C(C)(C)COP(=O)(O)OP(=O)(O)OC[C@H]1O[C@@H](n2cnc3c(N)ncnc32)[C@H](O)[C@@H]1OP(=O)(O)O [linolenoyl-CoA, linolenoyl-CoA (C18:3)]
- Acyl-CoA specificity of WS2 (WS2 [1]; both substrates 1 mM): readily accepted

Molecule: CCO [Ethanol]
- Kcat of WS2 (WS2 [3]; steady state on ethanol and oleoyl-CoA): 32 s⁻¹
- Km (WS2 [3]; [9]): 17 µM
- Vmax of WS2 (WS2 [3]; [9]): 1250 μmol (mg/min)^−1

Molecule: CC(C)CCCC(C)CCCC(C)CCCC(C)CC(=O)SCCNC(=O)CCNC(=O)[C@H](O)C(C)(C)COP(=O)(O)OP(=O)(O)OC[C@H]1O[C@@H](n2cnc3c(N)ncnc32)[C@H](O)[C@@H]1OP(=O)(O)O (stereo partly drawn) [Phytanoyl-CoA]
- WE product formation by WS1 (TLC), in words (WS1 [4]): fatty alcohols were not condensed to phytanoyl-CoA; also recorded: produced isoprenoid WEs from phytanoyl-CoA and the isoprenoid alcohols phytol and farnesol
- WE product formation by WS2 (TLC), in words (WS2 [5]): fatty alcohols were not condensed to phytanoyl-CoA; also recorded: produced isoprenoid WEs from phytanoyl-CoA and the isoprenoid alcohols phytol and farnesol
- Mean sp act ± SD of Marinobacter WS2 (WS2 [1]; co-substrate phytol): 0.397 ± 0.099 mmol/min/mg
- Mean sp act ± SD of Marinobacter WS2 (WS2 [1]; co-substrate phytol, listed as phytanoyl-CoA): 0.397 mmol/min/mg

Molecule: CCCCCCCCCCCCO [dodecanol]
- Fatty/isoprenoid alcohol specificity of WS2 (WS2 [1]; palmitoyl-CoA as acyl donor, both substrates 1 mM): more readily taken up for WE synthesis than the equivalent-chain-length acyl-CoA carbon chain

Molecule: CCCCCCCCCCCCCCCCCCCC(=O)SCCNC(=O)CCNC(=O)[C@H](O)C(C)(C)COP(=O)(O)OP(=O)(O)OC[C@H]1O[C@@H](n2cnc3c(N)ncnc32)[C@H](O)[C@@H]1OP(=O)(O)O [arachidoyl-CoA, arachidoyl-CoA (C20:0)]
- Acyl-CoA specificity of WS2 (WS2 [1]; both substrates 1 mM): readily accepted

B1: WS2 (Marinobacter nauticus) (protein)
chain: MKRLGTLDASWLAVESEDTPMHVGTLQIFSLPEGAPETFLRDMVTRMKEAGDVAPPWGYKLAWSGFLGRVIAPAWKVDKDIDLDYHVRHSALPRPGGERELGILVSRLHSNPLDFSRPLWECHVIEGLENNRFALYTKMHHSMIDGISGVRLMQRVLTTDPERCNMPPPWTVRPHQRRGAKTDKEASVPAAVSQAMDALKLQADMAPRLWQAGNRLVHSVRHPEDGLTAPFTGPVSVLNHRVTAQRRFATQHYQLDRLKNLAHASGGSLNDIVLYLCGTALRRFLAEQNNLPDTPLTAGIPVNIRPADDEGTGTQISFMIASLATDEADPLNRLQQIKTSTRRAKEHLQKLPKSALTQYTMLLMSPYILQLMSGLGGRMRPVFNVTISNVPGPEGTLYYEGARLEAMYPVSLIAHGGALNITCLSYAGSLNFGFTGCRDTLPSMQKLAVYTGEALDELESLILPPKKRARTRK
- Km [6]: 23 µM
- kcat/Km [6]: 2.56 × 10^6 (M^−1 s^−1) M^−1 s^−1
- WS2 more active in vitro in producing acyl ester products than Acinetobacter WS/DGAT (WS2 [1]; in vitro): approximately 150 times
- Km [7]: 44 µM
- Vmax [7]: 10 mmol/mg/min
- kcat [7]: 4,794 s^−1
